Laboratory results from patent publication US20240285571A1, “METHODS OF TREATING BONE INFECTIONS” (MICROBION CORPORATION, priority 2020, published 2024).
Each block holds one molecule with its values, some of them ahead of it.

Key:
[1] = system: relevant ATCC QC organisms; experiment: Broth microdilution MIC, QC (Example 6); format: cell-based; conditions: S. aureus ATCC 29213
Procedure: (§1) Test Compounds: The test agents BisEDT (MB-1-B3; Lot No. ED268-1-11-01), MB-2B, and MB-6 were stored at room temperature, in the dark, until assayed. The solvent and diluent for the test agents was DMSO (Sigma; St. Louis, MO; Lot No. SHBB9319V) and the prepared stock concentration was 6,464 μg/mL (101× the final test concentration).
(§2) Test compounds were evaluated at a concentration range of 0.06-64 μg/mL. For Gram-negative test isolates, amikacin and ceftazidime (alone and with clavulanate at a fixed concentration of 4 μg/mL) were evaluated over a concentration range of 0.06-64 μg/mL; meropenem and levofloxacin were evaluated over a concentration range of 0.008-8 μg/mL. For the testing of S. aureus, clindamycin, daptomycin, levofloxacin and vancomycin were evaluated at a concentration range of 0.008-8 μg/mL; linezolid was tested from 0.03-32 μg/mL.
Organisms: The test organisms as shown in Tables 11-15 consisted of clinical isolates from the Micromyx (MMX) repository and reference strains from the American Type Culture Collection (ATCC; Manassas, VA), National Collection of Type Cultures (NCTC; Public Health England, Salisbury, UK), the Network on Antimicrobial Resistance in Staphylococcus aureus (NARSA; BEI Resources, Manassas, VA), and the Centers for Disease Control and Prevention (CDC; Atlanta, GA). The test organisms were maintained frozen at −80° C. Prior to testing, the isolates were cultured on Tryptic Soy Agar with 5% sheep blood (BAP; Becton Dickson [BD]/BBL; Sparks, MD; Lot Nos. 9080650 and 9108563) at 35° C. Relevant ATCC quality control (QC) organisms (Table 16) were included during testing in accordance with CLSI guidelines (3). Further details on the genetic characterization of the isolates where available can be found in Table 17.
(§3) Media: Cation-adjusted Mueller Hinton broth (CAMHB; BD; Lot No. 8190586) was used as the medium for testing (2, 3). For testing daptomycin, calcium was supplemented with […] Ca^2+, resulting in a final concentration of […] Ca^2+ (2, 3).
(§4) MIC Assay Procedure: MIC values were determined using a broth microdilution procedure described by CLSI (2, 3). Automated liquid handlers (Multidrop 384, Labsystems, Helsinki, Finland; Biomek 2000 and Biomek F X, Beckman Coulter, Fullerton CA) were used to conduct serial dilutions and liquid transfers.
(§5) To prepare the drug mother plates, which would provide the serial drug dilutions for the replicate daughter plates, the wells of columns 2 through 12 of standard 96-well microdilution plates (Costar 3795) were filled with 150 μl of the appropriate diluent for each row of drug. The test articles and comparator compounds (300 μl at 101× the highest concentration to be tested) were dispensed into the appropriate wells in column 1. The Biomek 2000 was then used to make 2-fold serial dilutions in the mother plates from column 1 through column 11. The wells of column 12 contained no drug and served as the organism growth control wells for the assay.
(§6) The daughter plates were loaded with 190 μL per well of RPMI using the Multidrop 384. The test panels were prepared on the Biomek FX instrument which transferred 2 μL of drug solution from each well of a mother plate to the corresponding well of each daughter plate in a single step.
(§7) A standardized inoculum of each test organism was prepared per CLSI methods to equal a 0.5 McFarland standard, followed by a dilution of 1:20. The plates were then inoculated with 10 μL of the diluted inoculum using the Biomek 2000 from low to high drug concentration resulting in a final concentration of approximately 5×10^5 CFU/mL.
(§8) Plates were stacked 3-4 high, covered with a lid on the top plate, placed into plastic bags, and incubated at 35° C. for 16 to 20 hr (vancomycin was read for S. aureus after 24 hr incubation time). The MIC was recorded as the lowest concentration of drug that inhibited visible growth of the organism.

[2] = system: non-speciated Corynebacterium; experiment: MIC of baseline clinical isolates (Example 8); format: cell-based; conditions: Corynebacterium non-speciated baseline isolates (N′ = 2), central laboratory, mITT
Procedure: (§9) Microbiology was assessed on Day 1 and at the time of any subsequent surgical procedure at the index site. Samples were collected from the infected bone site or involved tissue adjacent to any implant(s), swabs of the deep infection site, and the superficial tissue/wound closure/sinus tract site. Isolation and identification of aerobic and anerobic bacteria was conducted at a central microbiology laboratory (IHMA, Schaumburg, IL) and susceptibility of the isolates to MBN-101 (BisEDT) and comparator agents was performed per Clinical and Laboratory Standards Institute (CLSI). Parallel sets of samples were analyzed by the local clinical site laboratory to guide patient antibiotic treatment.

[3] = system: Corynebacterium amycolatum; experiment: MIC of baseline clinical isolates (Example 8); format: cell-based; conditions: Corynebacterium amycolatum baseline isolates (N′ = 1), central laboratory, mITT
Procedure: as §9

[4] = system: Dermabacter hominis; experiment: MIC of baseline clinical isolates (Example 8); format: cell-based; conditions: Dermabacter hominis baseline isolates (N′ = 1), central laboratory, mITT
Procedure: as §9

[5] = system: Streptococcus oralis; experiment: MIC of baseline clinical isolates (Example 8); format: cell-based; conditions: Streptococcus oralis baseline isolates (N′ = 1), central laboratory, mITT
Procedure: as §9

[6] = system: Corynebacterium jeikeium; experiment: MIC of baseline clinical isolates (Example 8); format: cell-based; conditions: Corynebacterium jeikeium baseline isolates (N′ = 2), central laboratory, mITT
Procedure: as §9

[7] = system: Corynebacterium resistens; experiment: MIC of baseline clinical isolates (Example 8); format: cell-based; conditions: Corynebacterium resistens baseline isolates (N′ = 1), central laboratory, mITT
Procedure: as §9

[8] = system: Staphylococcus haemolyticus; experiment: MIC of baseline clinical isolates (Example 8); format: cell-based; conditions: Staphylococcus haemolyticus baseline isolates (N′ = 1), central laboratory, mITT
Procedure: (§10) Microbiology was assessed on Day 1 and at the time of any subsequent surgical procedure at the index site. Samples were collected from the infected bone site or involved tissue adjacent to any implant(s), swabs of the deep infection site, and the superficial tissue/wound closure/sinus tract site. […] Parallel sets of samples were analyzed by the local clinical site laboratory to guide patient antibiotic treatment.

[9] = system: Staphylococcus hominis; experiment: MIC of baseline clinical isolates (Example 8); format: cell-based; conditions: Staphylococcus hominis baseline isolates (N′ = 1), central laboratory, mITT
Procedure: as §10

[10] = system: Staphylococcus arlettae; experiment: MIC of baseline clinical isolates (Example 8); format: cell-based; conditions: Staphylococcus arlettae baseline isolates (N′ = 1), central laboratory, mITT
Procedure: as §10

[11] = system: Staphylococcus lugdunensis; experiment: MIC of baseline clinical isolates (Example 8); format: cell-based; conditions: Staphylococcus lugdunensis baseline isolates (N′ = 3), central laboratory, mITT
Procedure: as §10

[12] = system: S. epidermidis; experiment: MIC of baseline clinical isolates (Example 8); format: cell-based; conditions: Staphylococcus epidermidis baseline isolates (N′ = 5), central laboratory, mITT
Procedure: as §10

[13] = system: Staphylococcus pasteuri; experiment: MIC of baseline clinical isolates (Example 8); format: cell-based; conditions: Staphylococcus pasteuri baseline isolates (N′ = 1), central laboratory, mITT
Procedure: as §10

[14] = system: S. aureus (MRSA, MSSA); experiment: MIC of baseline clinical isolates (Example 8); format: cell-based; conditions: Staphylococcus aureus, MRSA baseline isolates (N′ = 4), central laboratory, mITT
Procedure: as §10

[15] = system: relevant ATCC QC organisms; conditions: S. aureus ATCC 29213; CLSI established QC range; cited from earlier work
[16] = system: vancomycin-intermediate Staphylococcus aureus; experiment: Broth microdilution MIC (Example 6); format: cell-based
Procedure: as §1, §2, §3, §4, §5, §6, §7, §8

[17] = system: Actinomyces turicensis; experiment: MIC of baseline clinical isolates (Example 8); format: cell-based; conditions: Actinomyces turicensis baseline isolates (N′ = 1), central laboratory, mITT
Procedure: as §10

[18] = system: Peptoniphilus gorbachii; experiment: MIC of baseline clinical isolates (Example 8); format: cell-based; conditions: Peptoniphilus gorbachii baseline isolates (N′ = 1), central laboratory, mITT
Procedure: as §10

[19] = system: F. magna; experiment: MIC of baseline clinical isolates (Example 8); format: cell-based; conditions: Finegoldia magna baseline isolates (N′ = 4), central laboratory, mITT
Procedure: as §10

[20] = system: Anaerococcus murdochii; experiment: MIC of baseline clinical isolates (Example 8); format: cell-based; conditions: Anaerococcus murdochii baseline isolates (N′ = 1), central laboratory, mITT
Procedure: as §10

[21] = system: Cutibacterium [Propionibacterium] acnes; experiment: MIC of baseline clinical isolates (Example 8); format: cell-based; conditions: Cutibacterium (Proprionibacterium) acnes baseline isolates (N′ = 3), central laboratory, mITT
Procedure: as §10

[22] = system: non-speciated Anaerococcus; experiment: MIC of baseline clinical isolates (Example 8); format: cell-based; conditions: Anaerococcus non-speciated baseline isolates (N′ = 1), central laboratory, mITT
Procedure: as §10

[23] = system: Clostridium sphenoides; experiment: MIC of baseline clinical isolates (Example 8); format: cell-based; conditions: Clostridium sphenoides baseline isolates (N′ = 1), central laboratory, mITT
Procedure: as §10

Compound: CN[C@H](CC(C)C)C(=O)N[C@H]1C(=O)N[C@@H](CC(N)=O)C(=O)N[C@H]2C(=O)N[C@H]3C(=O)N[C@H](C(=O)N[C@H](C(=O)O)c4cc(O)cc(O)c4-c4cc3ccc4O)[C@H](O)c3ccc(c(Cl)c3)Oc3cc2cc(c3O[C@@H]2O[C@H](CO)[C@@H](O)[C@H](O)[C@H]2O[C@H]2C[C@](C)(N)[C@H](O)[C@H](C)O2)Oc2ccc(cc2Cl)[C@H]1O [VAN]
MIC [1]: 0.5 mg/L
Mean MIC [2]: 0.12 mg/L
n (% resistant) [2]: 0 (0.0) n (%)
n (% resistant) [3]: 0 (0.0) n (%)
Mean MIC [4]: 0.25 mg/L
n (% resistant) [4]: 0 (0.0) n (%)
Mean MIC [5]: 0.50 mg/L
n (% resistant) [5]: 0 (0.0) n (%)
n (% resistant) [6]: 0 (0.0) n (%)
Mean MIC [7]: 1.00 mg/L
n (% resistant) [7]: 0 (0.0) n (%)
Mean MIC [8]: 1.00 mg/L
Mean MIC [9]: 2.00 mg/L
n (% resistant) [9]: 0 (0.0) n (%)
Mean MIC [10]: 2.00 mg/L
n (% resistant) [10]: 0 (0.0) n (%)
Mean MIC [11]: 0.83 mg/L
n (% resistant) [11]: 0 (0.0) n (%)
Mean MIC [12]: 150 mg/L
n (% resistant) [12]: 0 (0.0) n (%)
Mean MIC [13]: 1.00 mg/L
n (% resistant) [13]: 0 (0.0) n (%)
Mean MIC [14]: 1.25 mg/L
n (% resistant) [14]: 0 (0.0) n (%)
MIC QC range (in parentheses) [15]: (0.5-2) μg/mL
MIC ([16]; S. aureus isolate NRS 1 (hVISA)): 4 mg/L
MIC ([16]; S. aureus isolate NRS 2): 0.5 mg/L
MIC ([16]; S. aureus isolate NRS 3): 8 mg/L
MIC ([16]; S. aureus isolate NRS 4): 4 mg/L
MIC ([16]; S. aureus isolate NRS 13): 2 mg/L
MIC ([16]; S. aureus isolate NRS 18): 4 mg/L
MIC ([16]; S. aureus isolate NRS 22): 4 mg/L
MIC ([16]; S. aureus isolate NRS 24 (hVISA)): 2 mg/L
MIC ([16]; S. aureus isolate NRS 27): 2 mg/L

Mean MIC [17]: 16.00 mg/L
Mean MIC [18]: 0.50 mg/L
Mean MIC [19]: 0.56 mg/L
Mean MIC [20]: 1.00 mg/L
Mean MIC [21]: 16.00 mg/L
Mean MIC [22]: 16.00 mg/L
Mean MIC [23]: 0.32 mg/L
Compound: Cc1ncc([N+](=O)[O-])n1CCO [MTZ]
n (% resistant) [17]: 1 (100.0) n (%)
n (% resistant) [18]: 0 (0.0) n (%)
n (% resistant) [19]: 0 (0.0) n (%)
n (% resistant) [20]: 0 (0.0) n (%)
n (% resistant) [21]: 3 (100.0) n (%)
n (% resistant) [22]: 1 (100.0) n (%)
n (% resistant) [23]: 0 (0.0) n (%)
